The subject of this experiment is cortical neurons. Put plainly: Calcium imaging on primary cortical neurons (SOCE, glutamate-triggered action potential). Particulars: FIG. 15. Format: cell-based, mouse. The method, then: GA enhances SOCE and calcium influx during glutamate-triggered action potentials. Fluorescent microscopy images in a show the effect of calcium, glutamate and ionomycin on intracellular calcium in Fluo-4 AM charged cortical neurons at different time points.
Primary cortical neuronal cell cultures were prepared from E15.5 embryos. Briefly, brain cortex from E15.5 pregnant wild type C57Bl/6J or PARK-7^−/− mice were dissected and placed in cold HBSS without Ca2+ and Mg2+(Sigma Aldrich H6648, Germany, EU). Once freed from all other cerebral structures, cortex were placed in an empty petri dish, sliced with the help of a scalpel and trypsinized using a 1:1 mixture of Trypsin (Gibco 25200-056):HBSS at 37° C. for 7 min. The samples were then centrifuged for 4 min. at 800 rpm and the supernatant was replaced with plating medium (89% Neurobasal A, 8.9% FBS, 0.9% L-glutamine, 0.9% N2 supplement and 0.4% P/S). […]
Variations in the Fluo-4 AM fluorescence during Ca^2+ and/or glutamate addition were analyzed using FIJI Image Analysis Freeware. The ROIs were determined using the standard deviation function for the stack of images before and after the addition of 1.8 mM CaCl2 (for changes in intracellular Ca^2+) or before and after the addition of glutamate. […] Once all ROIs were identified and selected, the MFI of each ROI for each time-point was measured with the measure function of the program to generate a matrix with the raw MFI values for each ROI for each time point. […] To determine the effect of GA and DL on Ca^2+ influx after CaCl2 addition and after glutamate addition, all ROIs where normalized using a max-min normalization as previously described: ([Ca^2+]Ca—[Ca^2+]t0/([Ca^2+]ionomycine-[Ca^2+]t0) Once the new matrix with the normalized values was generated, we determined the area under the curve (AUC) in excel using the formula: (Y1+Y2)/2*(X2−X1). The AUC was then obtained as the sum of all the generated values.

Take `O=C(O)CO` [GA, 2-hydroxyethanoic acid]: the calcium transients entry is listed as “bigger calcium transients”. The “intracellular calcium during the glutamate-triggered action potential” value (2.5 mM GA) was “higher increases in intracellular calcium during the action potential”. Besides, the “storage operated calcium entry (SOCE)” value (2.5 mM GA, after addition of calcium) is on record as “increased storage operated calcium entry (SOCE)”.

Values taken from patent publication US20230277491A1, “PHARMACEUTICAL COMBINATION COMPRISING GLYCOLIC ACID AND L-ALANINE” (priority 2020, published 2023).
